{"source": "patent US10842829B2", "about": "“Natural product to improve immunity and combat viral diseases, bacterial diseases, fungal diseases, and cancer diseases” (priority 2017, dated 2020)", "key": {"mycoplasma": {"tested_on": "mycoplasma", "experiment": "Mycoplasma disease treatment", "type": "in vivo", "details": "three sheep", "description": "The experiment was at four sheep farms. The sheep suffered from cough and high temperature (42° C.). When performing autopsy on dead sheep, the congestion in the lungs was clear. […] Ampicillin only affects the cell wall.\nAnother 10 sick sheep from each farm were isolated and treated with 5 ml of Tylosin and Enrofloxacin."}, "[1]": {"tested_on": "Streptococcus isolated from cow's milk", "experiment": "Streptococcus germs cultured in a lab setting"}, "[2]": {"tested_on": "NHDF cells (Normal Human Dermal Fibroblast cell line)", "experiment": "XTT proliferation assay on NHDF cells", "type": "cell-based", "description": "FIGS. 20-23 and Tables F1-F4 relate to a study to determine the potency of novel natural extract compounds in inhibiting the proliferation of Normal Human Dermal Fibroblast cell line (NHDF cells). […] In this study: Compound I, III and IV which are arrangements of compound according to the present invention are evaluated in a XTT proliferation assay for 72 hours to determine its potency in inhibiting the proliferation of NHDF cells. Traditionally, the in-vitro determination of toxic effects of unknown compounds has been performed by counting viable cells after staining with a vital dye. The XTT system is a mean of measuring the activity of living cells via mitochondrial dehydrogenases. The XTT method is simple, accurate and yields reproducible results. […] Solutions of XTT, prepared in medium or balances salt solutions without phenol red, are yellowish in colour. Mitochondrial dehydrogenases of viable cells cleave the tetrazolium ring of XTT yielding orange formazon crystals which are soluble in aqueous solutions. The resulting orange colour is spectrophotometrically measured. The bio-reduction is XTT is inefficient but can be potentiated by the addition of an electron coupling agent such as phenazine methosulphate (PMS) to the reaction. An increase or decrease in cell numbers results in a concomitant change in the amount of formazon formed, indicating the degree of cytotoxicity caused by the test material. In the foregoing study the following kits and reagents were used: • Cells: NHDF, a Normal Human Dermal Fibroblast cell line (Lonza) • Media: FGM-2 bullet kit media • Cell culture T75 flasks (BD-Falcon-LAB353136) • 96 well cell clear tissue culture treated plates (BD-Falcon-LAB353072) • Dimethyl Sulphoxide (DMSO) (Sigma-D2650) • XT (Sigma-[…]) • PMS (Sigma-[…]) In the foregoing study, three arrangement of compound according to the present invention, which in FIGS. 20-23 and Tables F1-F4 are designated as compounds I, III and IV, were tested. In the foregoing study, the control or vehicle was sterile deionized water. In regard to experimental procedure, for seeding in a 96-well plate, the cells were re-suspended to a density of […] of complete FGM-2 Bullet kit medium. 80 μL of this cell suspension was added per well to seed 2000 cells per well. […] In the foregoing study, the following points relate to compound dilution and treatment: • 20 μL of stock (100×) was serially diluted (2×) in 20 μL of sterile deionized water. • 20 μL of each dilution was then added in triplicates in the previously seeded 96-well plate. • Cells treated with deionized water served as control. • 100 μL of complete Ham's F12 medium served as media blank for the data analysis. • 200 μL of PBS was added in all corner wells of the assay plate. Plate was then incubated for 72 hours in an incubator with 5% CO2 at 37° C. In the foregoing study, the following points relate to termination: • XTT reagent-1 mg/mL solution of XTT was made in serum-free Ham's F12 medium. […] The data was analyzed using GraphPad Prism Software. In regard to data generation in the foregoing study: • Raw data of OD values was obtained in the form of excel sheet from Victor X5 Multi-label Plate Reader. • Average of media blank and average of control was calculated. • Average media blank was subtracted from each experimental well and control."}, "[3]": {"tested_on": "HT-1080 cells (fibrosarcoma cell line)", "experiment": "XTT proliferation assay on HT-1080 cells", "type": "cell-based", "details": "Homo sapiens"}, "Pasteurella": {"tested_on": "Pasteurella", "experiment": "Pasteurella disease treatment", "details": "second group of 10 sheep, both antibiotics together"}}}
{"molecule": "CC1(C)S[C@@H]2[C@H](NC(=O)[C@H](N)c3ccccc3)C(=O)N2[C@H]1C(=O)O", "note": "[Ampicillin]", "values": [{"measurement": "outcome of treatment", "setting": "mycoplasma", "value": "they were not cured"}, {"measurement": "killing of germs", "setting": "[1]", "value": "not all germs were killed"}]}
{"molecule": "COc1cccc2c1C(=O)c1c(O)c3c(c(O)c1C2=O)C[C@@](O)(C(=O)CO)C[C@@H]3O[C@H]1C[C@H](N)[C@H](O)[C@H](C)O1", "note": "[Doxorubicin]", "values": [{"measurement": "% Inhibition", "setting": "[2]; Doxorubicin 0.000 μM", "value": 24.6, "unit": "%"}, {"measurement": "inhibition at 0.001 µM", "setting": "[2]; Homo sapiens, Doxorubicin 0.001 μM", "value": 17.9, "unit": "%"}, {"measurement": "inhibition at 0.004 µM", "setting": "[2]; Homo sapiens, Doxorubicin 0.004 μM", "value": 25.9, "unit": "%"}, {"measurement": "inhibition at 0.01 µM", "setting": "[2]; Homo sapiens, Doxorubicin 0.01 μM", "value": 26.9, "unit": "%"}, {"measurement": "inhibition at 0.04 µM", "setting": "[2]; Homo sapiens, Doxorubicin 0.04 μM", "value": 33.9, "unit": "%"}, {"measurement": "inhibition at 0.11 µM", "setting": "[2]; Homo sapiens, Doxorubicin 0.11 μM", "value": 37.5, "unit": "%"}, {"measurement": "inhibition at 0.33 µM", "setting": "[2]; Homo sapiens, Doxorubicin 0.33 μM", "value": 68.6, "unit": "%"}, {"measurement": "inhibition at 1 µM", "setting": "[2]; Homo sapiens, Doxorubicin 1 μM", "value": 86.4, "unit": "%"}, {"measurement": "inhibition at 3 µM", "setting": "[2]; Homo sapiens, Doxorubicin 3 μM", "value": 57.1, "unit": "%"}, {"measurement": "inhibition at 0.0002 µM", "setting": "[3]; Doxorubicin 0.0002 μM", "value": 16.1, "unit": "%"}, {"measurement": "inhibition at 0.0005 µM", "setting": "[3]; Doxorubicin 0.0005 μM", "value": 14.9, "unit": "%"}, {"measurement": "inhibition at 0.0014 µM", "setting": "[3]; Doxorubicin 0.0014 μM", "value": 22.1, "unit": "%"}, {"measurement": "inhibition at 0.0041 µM", "setting": "[3]; Doxorubicin 0.0041 μM", "value": 28.9, "unit": "%"}, {"measurement": "inhibition at 0.0123 µM", "setting": "[3]; Doxorubicin 0.0123 μM", "value": 63.6, "unit": "%"}, {"measurement": "inhibition at 0.037 µM", "setting": "[3]; Doxorubicin 0.0370 μM", "value": 76.4, "unit": "%"}, {"measurement": "inhibition at 0.1111 µM", "setting": "[3]; Doxorubicin 0.1111 μM", "value": 77.7, "unit": "%"}, {"measurement": "inhibition at 0.3333 µM", "setting": "[3]; Doxorubicin 0.3333 μM", "value": 91, "unit": "%"}, {"measurement": "inhibition at 1 µM", "setting": "[3]; Doxorubicin 1 μM", "value": 98.2, "unit": "%"}]}
{"molecule": "NCC[C@H](O)C(=O)N[C@@H]1C[C@H](N)[C@@H](O[C@H]2O[C@H](CN)[C@@H](O)[C@H](O)[C@H]2O)[C@H](O)[C@H]1O[C@H]1O[C@H](CO)[C@@H](O)[C@H](N)[C@H]1O", "note": "[amikacin]", "values": [{"measurement": "killing of germs", "setting": "[1]", "value": "not all germs were killed"}]}
{"molecule": "CC1=C(C(=O)O)N2C(=O)[C@@H](NC(=O)[C@H](N)c3ccccc3)[C@H]2SC1", "note": "[cephalexin]", "values": [{"measurement": "killing of germs", "setting": "[1]", "value": "not all germs were killed"}]}
{"molecule": "O=C(O)c1cn(C2CC2)c2cc(N3CCNCC3)c(F)cc2c1=O", "note": "[ciprofloxacin]", "values": [{"measurement": "killing of germs", "setting": "[1]", "value": "not all germs were killed"}]}
{"molecule": "Cc1onc(-c2ccccc2Cl)c1C(=O)N[C@@H]1C(=O)N2[C@@H]1SC(C)(C)[C@@H]2C(=O)O", "note": "[cloxacillin]", "values": [{"measurement": "killing of germs", "setting": "[1]", "value": "not all germs were killed"}]}
{"molecule": "CCN1CCN(c2cc3c(cc2F)c(=O)c(C(=O)O)cn3C2CC2)CC1", "note": "[enrofloxacin]", "values": [{"measurement": "speed of improvement versus product group", "setting": "Pasteurella", "value": "slower than in the first group"}, {"measurement": "killing of germs", "setting": "[1]", "value": "not all germs were killed"}]}
{"molecule": "CC[C@H]1OC(=O)[C@H](C)[C@@H](O[C@H]2C[C@@](C)(OC)[C@@H](O)[C@H](C)O2)[C@H](C)[C@@H](O[C@@H]2O[C@H](C)C[C@H](N(C)C)[C@H]2O)[C@](C)(O)C[C@@H](C)C(=O)[C@H](C)[C@@H](O)[C@]1(C)O", "note": "[erythromycin]", "values": [{"measurement": "killing of germs", "setting": "[1]", "value": "not all germs were killed"}]}
{"molecule": "[H]/N=C(/N)N[C@H]1[C@H](O)[C@@H](O)[C@H](O[C@@H]2O[C@@H](C)[C@](O)(C=O)[C@H]2O[C@@H]2O[C@@H](CO)[C@H](O)[C@@H](O)[C@@H]2NC)[C@@H](N/C(N)=N\\[H])[C@@H]1O", "note": "[streptomycin]", "values": [{"measurement": "killing of germs", "setting": "[1]", "value": "not all germs were killed"}]}
{"molecule": "Spiramycin", "values": [{"measurement": "killing of germs", "setting": "[1]", "value": "not all germs were killed"}]}
{"molecule": "Tylozin", "values": [{"measurement": "killing of germs", "setting": "[1]", "value": "not all germs were killed"}]}
{"molecule": "gentamicin", "values": [{"measurement": "killing of germs", "setting": "[1]", "value": "not all germs were killed"}]}
{"molecule": "neomycin", "values": [{"measurement": "killing of germs", "setting": "[1]", "value": "not all germs were killed"}]}
{"molecule": "penicillin", "values": [{"measurement": "killing of germs", "setting": "[1]", "value": "not all germs were killed"}]}
